Patent US6593369B2, “Methods, compositions, and kits for enhancing female sexual desire and responsiveness” (Vivus, Inc., priority 1997, dated 2003)
≈ marks a conversion by molar mass, not a printed value. Values belong to the compound of their own block, whether it stands above or below them.

Legend:
clitoris [1] = assay: Measurement of clitoral skin temperature after topical application to the clitoris; format: in vivo, human
Text: 2. Measurement of clitoral skin temperature:
A highly sensitive thermocouple capable of determining changes in skin temperature of 0.002 degrees Fahrenheit was connected to a computer-based recording device (F1000 by Focused Technology, Inc.) and used to measure changes in clitoral skin temperature. The patient changed from their clothes into a gown and was placed in a semi-reclining position in a comfortable recliner. Room temperature was controlled at 76 degrees F. (±1) and no air drafts were present. The thermocouple was coated with a small amount of lubricating jelly and placed in a labial skin fold adjacent to the clitoris. A period of equilibration (˜15 minutes) allowed the measured temperature to stabilize. Next, precise doses of various pharmaceuticals were applied as solutions directly to the clitoris by a calibrated micropipette (Justor 1100DG, Sigma; St. Louis, Mo.). Typical volumes used were 20-50 microliters. Clitoral temperatures were continually measured and printed for analysis. Increases in skin temperature directly correlate with changes in cutaneous blood flow. See Birnbaum (U.S. Pat. No. 4,311,707) for an example of using this method to compare the relative vasodilatory potency of topical prostaglandins. Changes in skin temperature are reported as maximum recorded temperature in an interval minus the temperature at the end of the equilibration period. The magnitudes of these recorded temperature changes may be used as a measurement of the change in clitoral blood flow.
(§1) 1. Solutions of prostaglandin E-1 and E-2 were prepared by dissolving weighed amounts of the prostaglandin in triacetin to produce a concentrated stock solution. Serial dilutions of this stock solution were made by a micropipette. Since triacetin can partially hydrolyze on standing to produce traces of acetic acid, the triacetin was treated with a small amount of a concentration potassium bicarbonate solution to remove any acetic acid, then dried with magnesium sulfate and filtered to give a triacetin free of acid or water. Solutions were used the same day that they were made. Concentrations of prostaglandin varied from 2.0-1,000 micrograms per milliliter of triacetin. Following equilibration of clitoral temperature, a dose of triacetin was applied to the clitoris prior to active drug solutions to determine the effect of the carrier on the clitoris.
(§2) 2. R-alphamethylhistamine hydrochloride is not soluble in triacetin but is soluble in saline. Normal saline +2 millimolar potassium phosphate at pH 7.4 was used to prepare solutions of R-alphamethylhistamine hydrochloride with concentrations from 2.5-100 micrograms per milliliter of saline.
(§3) Solutions were applied directly to the clitoris by means of a calibrated micropipette (Justor 1100DG, Sigma; St. Louis, Mo.).

clitoral artery = assay: Measurement of clitoral blood flow by ultrasound (Doppler velocitometer); format: in vivo, human; conditions: Patient No. 1; for Change in Clitoral Blood Flow: peak systolic flow vs baseline; for Change in Clitoral Blood Flow, percent in brackets: vs baseline
Text: 1. Measurement of clitoral blood flow by ultrasound:
Clitoral blood flow was estimated by utilizing the Knoll-Midas ultrasonic Doppler velocitometer (Urometrics, Inc.). The ultrasound probe was manually positioned over the middle of the clitoral body as it courses superficially through the perineum between the external vaginal opening and the end of the clitoris (glans clitoris). […] This method is analogous to that used in measuring the cavernosal artery velocity in the penis. The clitoral artery was easily visualized. Measurements were made at baseline and at various time intervals following the application of a drug to the clitoris. Peak systolic blood flow at baseline was compared to peak systolic blood flow following drug administration as a method of comparing relative efficacy in inducing clitoral artery vasodilatation in a manner analogous to studies of such drugs in men.
as §1, §3

clitoris [2] = assay: Patient subjective reports of sexual arousal and symptoms after application to the clitoris; format: in vivo, human
Experimental: 3. Patient Subjective Reports:
Patient reports of symptoms and effects of agents on sexual arousal measures (such as warmth and tingling, vaginal lubrication and excitation) were recorded. Blood pressure and pulse were also recorded. Different drugs were given on different days. Some series of drug titrations were recorded on several days.
as §1, §2, §3

Solubility in water = format: physicochemical
Experimental: 5 mg of PGE-2 is added to sterile cold water (10 ml, 1 mM in sodium citrate), stirred until dissolved and the pH adjusted with either NaOH or HCl, to a pH of about 5.4.

clitoris [3] = assay: Subjective examples: composition applied directly to the clitoris of female subjects; format: in vivo, human
Text: The clitoris is often retracted or hidden under the clitoral hood. Thus, prior to administration of the present composition, the clitoral hood should be retracted with the finger of one hand, and the clitoral hood should be held back as the dose is applied. IV. Subjective Examples

[4] = Chemical stability of prostaglandin preparations; format: physicochemical; conditions: composition containing a citrate salt or tocopherol
[5] = Patient No. 1, 0.400 mcg in triacetin on clitoris
[6] = Patient No. 1, 1.000 mcg in triacetin on clitoris
[7] = Patient No. 1, 20.0 mcg in triacetin on clitoris
[8] = Patient No. 1, 50.0 mcg in triacetin on clitoris
[9] = Patient No. 1, 200.0 mcg in triacetin on clitoris
[10] = Patient No. 2, 1.000 mcg in triacetin on clitoris
[11] = Patient No. 2, 10.0 mcg in triacetin on clitoris
[12] = Patient No. 2, 100.0 mcg in triacetin on clitoris
[13] = Patient No. 1, 1.0 mcg in saline on clitoris
[14] = Patient No. 1, 10.0 mcg in saline on clitoris
[15] = Patient No. 1, 100.0 mcg in saline on clitoris
[16] = Patient No. 1, 0.020 mcg in triacetin on clitoris
[17] = Patient No. 1, 0.200 mcg in triacetin on clitoris
[18] = Patient No. 1, 10.0 mcg in triacetin on clitoris
[19] = Example 2, 50 μg with 150 μg phentolamine hydrochloride
[20] = Example 6, 300 μg liposomal mixture after 50 mg naltrexone HCl 2 hours before, person, anorgasmia secondary to paroxetine

solubility (Solubility in water): 80 µg/mL (≈ 226 µM)
SMILES: CCCCC[C@H](O)/C=C/[C@H]1[C@H](O)CC(=O)[C@@H]1CCCCCCC(=O)O [PGE-1, 3-hydroxy-2-(3-hydroxy-1-octenyl)-5-oxocyclopentaneheptanoic acid]
Temperature Change (clitoris [1]; [5]): −0.6 ° F.
Temperature Change (clitoris [1]; [6]): 0.3 ° F.
Temperature Change (clitoris [1]; [7]): 0.3 ° F.
Temperature Change (clitoris [1]; [8]): 0.1 ° F.
Temperature Change (clitoris [1]; Patient No. 1, 100.0 mcg in triacetin on clitoris): 2.7 ° F.
Temperature Change (clitoris [1]; [9]): 0.4 ° F.
Clitoral temperature effect (conclusion) (clitoris [1]; Patient No. 2): did not have a temperature increase
Temperature Change (clitoris [1]; [10]): −0.35 ° F.
Temperature Change (clitoris [1]; [11]): −0.10 ° F.
Temperature Change (clitoris [1]; [12]): −0.10 ° F.
Change in Clitoral Blood Flow (clitoral artery; 20.0 mcg in triacetin): 4 cm/s
Change in Clitoral Blood Flow, percent in brackets (clitoral artery; 20.0 mcg in triacetin): +46%
Change in Clitoral Blood Flow (clitoral artery; 50.0 mcg in triacetin): 3.5 cm/s
Change in Clitoral Blood Flow, percent in brackets (clitoral artery; 50.0 mcg in triacetin): +32%
Change in Clitoral Blood Flow (clitoral artery; 100.0 mcg in triacetin): 6.5 cm/s
Change in Clitoral Blood Flow, percent in brackets (clitoral artery; 100.0 mcg in triacetin): +33%
Change in Clitoral Blood Flow (clitoral artery; 200.0 mcg in triacetin): 11 cm/s
Change in Clitoral Blood Flow, percent in brackets (clitoral artery; 200.0 mcg in triacetin): +80%
Doses giving pleasurable feelings (clitoris [2]; Patient No. 1): ≥ 20 µg
Doses with adverse effects (clitoris [2]; Patient No. 1): adverse effects at all doses
Subjective Response (clitoris [2]; [5]): Felt cold.
Subjective Response (clitoris [2]; [6]): Clitoral burning; 6/10;
Subjective Response (clitoris [2]; [7]): Clitoral burning; 4/10.
Subjective Response (clitoris [2]; [8]): Exciting. Jaw pain.
Subjective Response (clitoris [2]; [9]): Diffuse pain, flushing,
Overall effects (clitoris [2]; Patient No. 2): neither positive nor negative effects
Subjective Response (clitoris [2]; [10]): Felt drop go on. No
Subjective Response (clitoris [2]; [11]): Felt drop go on. No
Subjective Response (clitoris [2]; [12]): Felt nothing.

SMILES: C[C@@H](N)Cc1c[nH]cn1.Cl [R-alphamethylhistamine, R-alphamethylhistamine hydrochloride]
Overall effect on temperature and sexual excitement (clitoris [1]; Patient No. 1): decreased temperature and decreased sexual excitement
Temperature Change (clitoris [1]; [13]): −0.1 ° F.
Temperature Change (clitoris [1]; [14]): −0.5 ° F.
Temperature Change (clitoris [1]; [15]): 0.1 ° F.
Subjective Response (clitoris [2]; [13]): None.
Subjective Response (clitoris [2]; [14]): Numb feeling in clitoris.
Subjective Response (clitoris [2]; [15]): Clitoral burning; 2/10;

Stability in composition [4]: especially stabile
SMILES: CCCCC[C@H](O)/C=C/[C@H]1[C@H](O)CC(=O)[C@@H]1C/C=C\CCCC(=O)O [PGE-2, 7-[3-hydroxy-2-(3-hydroxy-1-octenyl)-5-oxocyclopentyl]-5-heptenoic acid]
Temperature Change (clitoris [1]; [16]): 2.1 ° F.
Potency relative to PGE-1 (clitoral temperature increase) (clitoris [1]; Patient No. 1, 0.200 mcg PGE-2 about equal to 100 mcg PGE-1): about 500 times
Temperature Change (clitoris [1]; [17]): 2.4 ° F.
Temperature Change (clitoris [1]; [5]): 4.5 ° F.
Temperature Change (clitoris [1]; [6]): 2.3 ° F.
Temperature Change (clitoris [1]; [18]): 4.8 ° F.
Temperature Change (clitoris [1]; [8]): 2.0 ° F.
Temperature Change (clitoris [1]; Patient No. 2, 0.050 mcg in triacetin on clitoris): 1.8 ° F.
Temperature Change (clitoris [1]; [10]): 2.4 ° F.
Temperature Change (clitoris [1]; [11]): 2.0 ° F.
Clitoral temperature effect (conclusion) (clitoris [1]; both patients): increases in clitoral temperatures
Change in Clitoral Blood Flow (clitoral artery; 0.020 mcg in triacetin): 0 cm/s
Change in Clitoral Blood Flow (clitoral artery; 0.200 mcg in triacetin): 11 cm/s
Change in Clitoral Blood Flow, percent in brackets (clitoral artery; 0.200 mcg in triacetin): +50%
Change in Clitoral Blood Flow (clitoral artery; 0.400 mcg in triacetin): 12 cm/s
Change in Clitoral Blood Flow, percent in brackets (clitoral artery; 0.400 mcg in triacetin): +92%
Change in Clitoral Blood Flow (clitoral artery; 1.000 mcg in triacetin): 10 cm/s
Change in Clitoral Blood Flow, percent in brackets (clitoral artery; 1.000 mcg in triacetin): +77%
Change in Clitoral Blood Flow (clitoral artery; 10.0 mcg in triacetin): 10 cm/s
Change in Clitoral Blood Flow, percent in brackets (clitoral artery; 10.0 mcg in triacetin): +100%
Change in Clitoral Blood Flow (clitoral artery; 50.0 mcg in triacetin): 2 cm/s
Change in Clitoral Blood Flow, percent in brackets (clitoral artery; 50.0 mcg in triacetin): +20%
Dose resulting in an increase in clitoral blood flow (clitoral artery; triacetin solution with palmitic acid (PGDH inhibitor) and PGE2 in 10:1 weight ratio): 0.4 nanograms
Best dose (clitoris [2]; Patient No. 1): 0.400 µg
Doses with adverse effects (clitoris [2]; Patient No. 1): 50 µg
Subjective Response (clitoris [2]; [16]): Rare tingle.
Subjective Response (clitoris [2]; [17]): Very excited.
Subjective Response (clitoris [2]; [5]): Very excited, 9/10.
Subjective Response (clitoris [2]; [6]): Excited, 7/10.
Subjective Response (clitoris [2]; [18]): Very excited.
Subjective Response (clitoris [2]; [8]): Excited. 2/10 abdominal
Dose with subjective reports of a sexual response (clitoris [2]; Patient No. 1, triacetin solution with palmitic acid (PGDH inhibitor) and PGE2 in 10:1 weight ratio): 2 nanograms
Amount giving a sexual response (clitoris [2]; Patient No. 2): ≥ 0.050 µg
Subjective Response (clitoris [2]; [10]): Excited.
Sexual response after application (clitoris [3]; Example 1A, 20 μg with 150 μg phentolamine hydrochloride and 3 mg papaverine hydrochloride in liposomal solution, person, no sexual dysfunction): the clitoris became engorged and vaginal lubrication was noted
Sexual response after application (clitoris [3]; Example 1B, 125 μg with 125 μg phentolamine, aqueous solution, 2 drops, same person): essentially the same response as in part A
Sexual response after application (clitoris [3]; Example 1C, 125 μg alone in aqueous saline, 3 drops, same person): the same response described in part A but with reduced intensity
Duration of clitoral enlargement and sexual excitement (clitoris [3]; [19]): gone within one hour after application of the composition
Time at which stimulation peaked after application (clitoris [3]; [19]): around 15 minutes
Sexual response after application (clitoris [3]; Example 2, 50 μg with 150 μg phentolamine hydrochloride, aqueous solution, person, no sexual dysfunction): warm tingling sexual feelings in their clitoris within one minute
Response to repeat dosing (clitoris [3]; Example 2, repeat dose one and a half hours after the first dose): gave the same response as the first dose
Intensity of response rated by subject (clitoris [3]; Example 2, scale of one (1) to ten (10), ten highest, 50 μg with 150 μg phentolamine hydrochloride): 8
Sexual response after application (clitoris [3]; Example 5, 150 μg in liposomal solution, three drops, person with decreased sexual responsiveness): greatly increased their sexual desire and responsiveness
Sexual response after application (clitoris [3]; [20]): had the best sexual experience of their life
Time to tingling sexual feelings spreading over body (clitoris [3]; [20]): ≤ 1 min
